The term IC50 denotes the concentration at which inhibition is half-maximal. Higher therefore signals weaker potency in that assay.

The assay concerns HCT-116. Description: Cytotoxicity against HCT116 human colon cancer cell line. It is filed as functional, cell-based.
For the compound `CCC(=C/[C@H](C)C/C=C/C(C)=C/[C@@H](C)C(=O)[C@@H](C)[C@H](O)[C@@H](C)CC)/C=C/[C@H]1OC(=O)C=C[C@H]1C`, it took 0.2 nM to reach half-maximal inhibition (IC50). The figure for `CCC(=C/[C@H](C)C/C=C/C(C)=C/[C@@H](C)C(=O)[C@@H](C)[C@H](O)[C@@H](C)CC)/C=C/[C@H]1OC(=O)C=C[C@@H]1C` is 2 nM; for `CCC(=C/[C@H](C)C/C=C/C(C)=C/[C@@H](C)C(=O)[C@@H](C)[C@H](O)[C@@H](C)CC)/C=C/[C@@H]1OC(=O)C=C[C@@H]1C` it is 3 nM; for `CCC(=C/[C@H](C)C/C=C/C(C)=C/[C@@H](C)C(=O)[C@@H](C)[C@H](O)[C@@H](C)CC)/C=C/[C@@H]1OC(=O)C=C[C@H]1C` it is 30 nM. The figure for `CCC(=C/[C@H](C)C/C=C/C(C)=C/[C@@H](C)C(=O)[C@@H](C)[C@H](O)[C@@H](C)CC)/C=C/[C@H]1CC=CC(=O)O1` [CALLYSTATIN A] is 0.03 nM.

These data come from ChEMBL document CHEMBL1147764, “Leptostatin: a synthetic hybrid of the cytotoxic polyketides callystatin A and leptomycin B” (Bioorg Med Chem Lett, 2006).
